Test results reported in PubChem BioAssay AID1745844 (Carcinogenic Potency Database (CPDB), 2022).
Calls of active or inactive are those of the source. The rule behind the calls is not given here.

Tested on: rodent lifetime carcinogenesis bioassay, tumor incidence TD50
Assay: chronic cancer bioassays in animals – CPDB, compiled studies (AID 1745844)
Conditions: in drinking water

CN(N)C=O
TD50 (hamster, strain Syrian Golden, females, site: all sites, lesion: histiocytoma, malignant, dosed 102 weeks, study length 102 weeks): 4.71 mg/kg/day | TD50 (hamster, strain Syrian Golden, females, site: any site (literature study), lesion: several types, types named in the paper, dosed 102 weeks, study length 102 weeks): 6.04 mg/kg/day | TD50 (hamster, strain Syrian Golden, females, site: gall bladder, lesion: several types, types named in the paper, dosed 102 weeks, study length 102 weeks): 29.1 mg/kg/day | TD50 (hamster, strain Syrian Golden, females, site: liver, lesion: hepatoma, dosed 102 weeks, study length 102 weeks): 28.3 mg/kg/day | TD50 (hamster, strain Syrian Golden, females, site: liver, lesion: liver-cell carcinoma, dosed 102 weeks, study length 102 weeks): 25.1 mg/kg/day | TD50 (hamster, strain Syrian Golden, females, site: liver, lesion: several types, types named in the paper, dosed 102 weeks, study length 102 weeks): 11.3 mg/kg/day | TD50 (hamster, strain Syrian Golden, males, site: all sites, lesion: histiocytoma, malignant, dosed 102 weeks, study length 102 weeks): 12.7 mg/kg/day | TD50 (hamster, strain Syrian Golden, males, site: any site (literature study), lesion: several types, types named in the paper, dosed 102 weeks, study length 102 weeks): 4.89 mg/kg/day | TD50 (hamster, strain Syrian Golden, males, site: bile duct, lesion: several types, types named in the paper, dosed 102 weeks, study length 102 weeks): 19.7 mg/kg/day | TD50 (hamster, strain Syrian Golden, males, site: gall bladder, lesion: papillary adenoma, dosed 102 weeks, study length 102 weeks): 42.5 mg/kg/day | TD50 (hamster, strain Syrian Golden, males, site: gall bladder, lesion: several types, types named in the paper, dosed 102 weeks, study length 102 weeks): 25.3 mg/kg/day | TD50 (hamster, strain Syrian Golden, males, site: liver, lesion: hepatoma, dosed 102 weeks, study length 102 weeks): 13.3 mg/kg/day | TD50 (hamster, strain Syrian Golden, males, site: liver, lesion: liver-cell carcinoma, dosed 102 weeks, study length 102 weeks): 30 mg/kg/day | TD50 (hamster, strain Syrian Golden, males, site: liver, lesion: several types, types named in the paper, dosed 102 weeks, study length 102 weeks): 7.55 mg/kg/day | TD50 (mouse, strain Swiss albino, females, site: blood vessels, lesion: several types, types named in the paper, dosed 92 weeks, study length 92 weeks): 12.2 mg/kg/day | TD50 (mouse, strain Swiss albino, females, site: blood vessels, lesion: several types, types named in the paper, dosed 99 weeks, study length 100 weeks): 6.04 mg/kg/day | TD50 (mouse, strain Swiss albino, females, site: gall bladder, lesion: adenoma, dosed 65 weeks, study length 73 weeks): 31.5 mg/kg/day | TD50 (mouse, strain Swiss albino, females, site: gall bladder, lesion: adenoma, dosed 92 weeks, study length 92 weeks): 39.7 mg/kg/day | TD50 (mouse, strain Swiss albino, females, site: gall bladder, lesion: several types, types named in the paper, dosed 92 weeks, study length 92 weeks): 31.3 mg/kg/day | TD50 (mouse, strain Swiss albino, females, site: gall bladder, lesion: several types, types named in the paper, dosed 99 weeks, study length 100 weeks): 57.9 mg/kg/day | TD50 (mouse, strain Swiss albino, females, site: liver, lesion: angioma, dosed 97 weeks, study length 102 weeks): 23.8 mg/kg/day (inactive) | TD50 (mouse, strain Swiss albino, females, site: liver, lesion: hepatoma, benign, dosed 92 weeks, study length 92 weeks): 17.5 mg/kg/day | TD50 (mouse, strain Swiss albino, females, site: liver, lesion: hepatoma, benign, dosed 99 weeks, study length 100 weeks): 24.7 mg/kg/day | TD50 (mouse, strain Swiss albino, females, site: liver, lesion: hepatoma, dosed 65 weeks, study length 73 weeks): 19.5 mg/kg/day | TD50 (mouse, strain Swiss albino, females, site: liver, lesion: hepatoma, dosed 97 weeks, study length 102 weeks): 9.23 mg/kg/day (inactive) | TD50 (mouse, strain Swiss albino, females, site: liver, lesion: liver-cell carcinoma, dosed 65 weeks, study length 73 weeks): 19.9 mg/kg/day | TD50 (mouse, strain Swiss albino, females, site: liver, lesion: liver-cell carcinoma, dosed 92 weeks, study length 92 weeks): 22.4 mg/kg/day | TD50 (mouse, strain Swiss albino, females, site: liver, lesion: several types, types named in the paper, dosed 65 weeks, study length 73 weeks): 10.4 mg/kg/day | TD50 (mouse, strain Swiss albino, females, site: liver, lesion: several types, types named in the paper, dosed 92 weeks, study length 92 weeks): 8.66 mg/kg/day | TD50 (mouse, strain Swiss albino, females, site: lung, lesion: adenocarcinoma, dosed 97 weeks, study length 102 weeks): 1.12 mg/kg/day | TD50 (mouse, strain Swiss albino, females, site: lung, lesion: adenoma, dosed 97 weeks, study length 102 weeks): 1.5 mg/kg/day | TD50 (mouse, strain Swiss albino, females, site: lung, lesion: several types, types named in the paper, dosed 65 weeks, study length 73 weeks): 6.44 mg/kg/day | TD50 (mouse, strain Swiss albino, females, site: lung, lesion: several types, types named in the paper, dosed 92 weeks, study length 92 weeks): 2.16 mg/kg/day | TD50 (mouse, strain Swiss albino, females, site: lung, lesion: several types, types named in the paper, dosed 97 weeks, study length 102 weeks): 0.745 mg/kg/day | TD50 (mouse, strain Swiss albino, females, site: lung, lesion: several types, types named in the paper, dosed 99 weeks, study length 100 weeks): 0.921 mg/kg/day | TD50 (mouse, strain Swiss albino, males, site: bile duct, lesion: cholangioma, dosed 82 weeks, study length 82 weeks): 12.4 mg/kg/day | TD50 (mouse, strain Swiss albino, males, site: bile duct, lesion: several types, types named in the paper, dosed 65 weeks, study length 72 weeks): 36.2 mg/kg/day | TD50 (mouse, strain Swiss albino, males, site: blood vessels, lesion: several types, types named in the paper, dosed 96 weeks, study length 100 weeks): 3.47 mg/kg/day | TD50 (mouse, strain Swiss albino, males, site: forestomach, lesion: squamous-cell papilloma, dosed 97 weeks, study length 102 weeks): 11.2 mg/kg/day (inactive) | TD50 (mouse, strain Swiss albino, males, site: gall bladder, lesion: adenoma, dosed 65 weeks, study length 72 weeks): 38 mg/kg/day | TD50 (mouse, strain Swiss albino, males, site: gall bladder, lesion: adenoma, dosed 82 weeks, study length 82 weeks): 15.2 mg/kg/day | TD50 (mouse, strain Swiss albino, males, site: gall bladder, lesion: adenoma, dosed 96 weeks, study length 100 weeks): 9.88 mg/kg/day | TD50 (mouse, strain Swiss albino, males, site: gall bladder, lesion: several types, types named in the paper, dosed 96 weeks, study length 100 weeks): 9.1 mg/kg/day | TD50 (mouse, strain Swiss albino, males, site: liver, lesion: several types, types named in the paper, dosed 65 weeks, study length 72 weeks): 16.8 mg/kg/day | TD50 (mouse, strain Swiss albino, males, site: liver, lesion: several types, types named in the paper, dosed 82 weeks, study length 82 weeks): 1.03 mg/kg/day | TD50 (mouse, strain Swiss albino, males, site: liver, lesion: several types, types named in the paper, dosed 96 weeks, study length 100 weeks): 5.47 mg/kg/day | TD50 (mouse, strain Swiss albino, males, site: lung, lesion: adenocarcinoma, dosed 97 weeks, study length 102 weeks): 2.48 mg/kg/day | TD50 (mouse, strain Swiss albino, males, site: lung, lesion: adenoma, dosed 97 weeks, study length 102 weeks): 1.3 mg/kg/day | TD50 (mouse, strain Swiss albino, males, site: lung, lesion: several types, types named in the paper, dosed 65 weeks, study length 72 weeks): 14.2 mg/kg/day | TD50 (mouse, strain Swiss albino, males, site: lung, lesion: several types, types named in the paper, dosed 82 weeks, study length 82 weeks): 1.87 mg/kg/day | TD50 (mouse, strain Swiss albino, males, site: lung, lesion: several types, types named in the paper, dosed 96 weeks, study length 100 weeks): 1.72 mg/kg/day | TD50 (mouse, strain Swiss albino, males, site: lung, lesion: several types, types named in the paper, dosed 97 weeks, study length 102 weeks): 0.865 mg/kg/day | TD50 (mouse, strain Swiss albino, males, site: seminal vesicle, lesion: adenoma, dosed 82 weeks, study length 82 weeks): 20.7 mg/kg/day (inactive) | TD50 (mouse, strain Swiss albino, males, site: stomach, glandular, lesion: polypoid adenoma, dosed 97 weeks, study length 102 weeks): 3.43 mg/kg/day (inactive) | TD50 (mouse, strain Swiss albino, males, site: subcutaneous tissue, lesion: fibrosarcoma, dosed 97 weeks, study length 102 weeks): 2.6 mg/kg/day (inactive)
